From patent US20230053297A1, “COMPOSITIONS AND METHODS TO INCREASE SERUM DILEUCINE LEVELS” (Ingenious Ingredients, LP, priority 2021, published 2023)

Assay: Plasma dileucine pharmacokinetics after a single dose of leucine or whey protein isolate in healthy men
Conditions: male, human, in vivo
Protocol: Five healthy men between the ages of 18-50 years of age were recruited to participate in this study. Prior to beginning the study, all participants signed an informed consent document and complete a healthy history questionnaire to determine study eligibility.
All participants reported to the laboratory between 06:00-10:00 hours and observing an 8-10 hour fast. For the two days prior to testing, study participants were given a standardized meal plan to help control for changes in dietary intake prior to testing. Upon arrival, participants heart rate, blood pressure, body mass, height and body composition were measured using DEXA. Prior to body composition assessment, study participants were tested for appropriate hydration status. Using standard multiple sample phlebotomy approaches, approximately 10 mL of venous blood was collected from a forearm vein prior to being administrated a single dose of either leucine (2-gram dose) or whey protein isolate (25-gram dose). In a time course fashion, subsequent venous blood samples were collected 30, 60, 90, 120 and 240 minutes after ingestion of their assigned supplement. Participants were provided 250 mL of cold water to ingest after each blood collection. Study participants returned approximately 3-7 days after completion of the previous study visit to complete an identical testing session as previously described while receiving the alternative treatment.

For `CC(C)C[C@H](N)C(=O)O` [leucine], the “AUC Dileucine” value was 37.1 ± 20.2 µM·h, the Cmax was 610 ± 430 nM and the “increase of plasma dileucine levels compared to whey protein (as AUC)” value was 40.5%.
